Assay results from the NIST ThermoML archive (doi:10.1021/je030127e).

Test: xn = mol fraction of the nth substance listed
Details: 101.3 kPa, Liquid; for viscosity: Capillary tube (Ostwald / Ubbelohde) method

CCCCN [1-butanamine] + COCCO
Details	speed of sound, 298.15 K [m/s]	viscosity, 293.15 K [mPa·s]	viscosity, 298.15 K [mPa·s]	viscosity, 303.15 K [mPa·s]
x2 = 0	1251.6	0.525	0.496	0.467
x2 = 0.0501	1257	0.566	0.536	0.504
x2 = 0.0999	1262.3	0.613	0.578	0.544
x2 = 0.1508	1267.7	0.669	0.625	0.588
x2 = 0.2001	1273.1	0.731	0.68	0.636
x2 = 0.2509	1278.4	0.801	0.743	0.691
x2 = 0.3	1283.6	0.879	0.81	0.75
x2 = 0.3498	1288.8	0.964	0.886	0.815
x2 = 0.4001	1294	1.053	0.966	0.885
x2 = 0.4511	1299.1	1.146	1.049	0.957
x2 = 0.5001	1304	1.238	1.133	1.031
x2 = 0.5496	1308.8	1.327	1.214	1.103
x2 = 0.5997	1313.5	1.412	1.29	1.17
x2 = 0.6503	1318.1	1.488	1.358	1.232
x2 = 0.7	1322.4	1.552	1.415	1.286
x2 = 0.7492	1326.6	1.604	1.461	1.327
x2 = 0.7999	1330.7	1.643	1.493	1.359
x2 = 0.8491	1334.5	1.671	1.516	1.379
x2 = 0.8993	1338	1.686	1.525	1.389
x2 = 0.95	1341.4	1.696	1.533	1.395
